Earlier results in patent US20230037660A1, “METHODS OF TREATING VASCULAR LESIONS AND MALFORMATIONS” (priority 2019, published 2023).

Test system: diseased tissue / blood vessels
Conditions: ICG alone, not conjugated

## CC1(C)C(/C=C/C=C/C=C/C=C2\N(CCCCS(=O)(=O)O)c3ccc4ccccc4c3C2(C)C)=[N+](CCCCS(=O)(=O)[O-])c2ccc3ccccc3c21 [ICG, indocyanine green]
  Fluorescence behaviour of the dye alone after injection: transiently lights up blood vessels immediately after injection
